Results published in ChEMBL document CHEMBL1201862, “PubChem BioAssay data set” (2004).
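Test compounds were applied to cells in 96-well plates for 48 hours at 5 doses. GI50 is the concentration that inhibits growth by half.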 The source made the active and inactive calls. Cut-off read from the data, not from the text of the source: active = GI50 up to about 1.1 µM and inactive = higher.

Key:
Assay in all cases: NCI anticancer screen, dose series, 48 h
COLO 205 = system: COLO 205
RXF 393 = system: RXF 393
SK-MEL-2 = system: SK-MEL-2
NCI-H460 = system: NCI-H460
MDA-MB-435 = system: MDA-MB-435
TK-10 = system: TK-10
EKVX = system: EKVX
SF-268 = system: SF-268
SK-MEL-28 = system: SK-MEL-28
NCI-H23 = system: NCI-H23
HCT-116 = system: HCT-116
NCI/ADR-RES = system: NCI/ADR-RES
KM12 = system: KM12
OVCAR-4 = system: OVCAR-4
CAKI-1 = system: CAKI-1
PC-3 = system: PC-3
HL-60 = system: HL-60
OVCAR-8 = system: OVCAR-8
HT-29 = system: HT-29
T47D = system: T47D

Measured: GI50

COc1ccc(OC)c(C2Cc3cnc4nc(N)nc(N)c4c3C2)c1 (stereo not given)
inactive: COLO 205 19.5 µM | RXF 393 19.9 µM | SK-MEL-2 21.1 µM | NCI-H460 26.5 µM | MDA-MB-435 26.1 µM | TK-10 26.2 µM | EKVX 25.6 µM | SF-268 34.2 µM | SK-MEL-28 33.7 µM | NCI-H23 32.2 µM | HCT-116 19.8 µM | NCI/ADR-RES > 100 µM | KM12 24.3 µM | OVCAR-4 20.8 µM | CAKI-1 76.9 µM | PC-3 22.4 µM | HL-60 20.4 µM | OVCAR-8 26.2 µM | HT-29 20.8 µM | T47D 25 µM

CC1C[C@]2(C)C(NCCN)=Nc3ccccc3[C@@H]2N(C)c2ccccc21 (stereo not given in full)
inactive: COLO 205 2.23 µM | RXF 393 8.85 µM | SK-MEL-2 17.2 µM | NCI-H460 11.1 µM | MDA-MB-435 10.7 µM | TK-10 9.29 µM | EKVX 16.8 µM | SF-268 13.9 µM | SK-MEL-28 11.2 µM | NCI-H23 16.7 µM | HCT-116 8.32 µM | NCI/ADR-RES 26.4 µM | KM12 16 µM | OVCAR-4 16.3 µM | CAKI-1 15.5 µM | PC-3 12.9 µM | HL-60 16.2 µM | OVCAR-8 14.7 µM | HT-29 3.36 µM | T47D 15.1 µM

O=C(CC(=O)N(C(=O)c1ccccc1)c1ccc(Cl)cc1)N/N=C\c1ccccc1O
inactive: COLO 205 85.5 µM | RXF 393 36.8 µM | SK-MEL-2 45.1 µM | NCI-H460 96.2 µM | MDA-MB-435 > 100 µM | TK-10 32.3 µM | EKVX 37 µM | SF-268 24.8 µM | SK-MEL-28 > 100 µM | NCI-H23 43.4 µM | HCT-116 30.6 µM | NCI/ADR-RES 50.6 µM | KM12 33.5 µM | OVCAR-4 > 100 µM | CAKI-1 > 100 µM | PC-3 39.3 µM | HL-60 > 100 µM | OVCAR-8 35.2 µM | HT-29 > 100 µM | T47D 49.7 µM

Nc1ccc([As](=O)(O)O)cc1 [ARSANILIC ACID]
inactive: COLO 205 > 100 µM | RXF 393 > 100 µM | SK-MEL-2 > 100 µM | NCI-H460 > 100 µM | MDA-MB-435 > 100 µM | TK-10 > 100 µM | EKVX > 100 µM | SF-268 > 100 µM | SK-MEL-28 > 100 µM | NCI-H23 > 100 µM | HCT-116 > 100 µM | NCI/ADR-RES > 100 µM | KM12 > 100 µM | OVCAR-4 > 100 µM | CAKI-1 > 100 µM | PC-3 > 100 µM | HL-60 > 100 µM | OVCAR-8 > 100 µM | HT-29 > 100 µM | T47D > 100 µM
